Results on one compound are retold here after US20020082270A1, “Aminoquinazolines which inhibit signal transduction mediated by tyrosine kinases” (priority 2000, published 2002).

This assay addresses T1, human EGF-R (Homo sapiens, UniProt P00533).
T1 construct: expressed in transfected cells; host or cells: F/L-HERc cells: murine IL-3-dependent FDC-P1 cells transduced with retroviral vector LXSN carrying human EGF-R cDNA (packaging line GP+E86)
As to the kind of experiment: Inhibition of EGF-dependent proliferation of F/L-HERc cells. In kind it is cell-based. The note with it: F/L-HERc cells (murine IL-3-dependent line expressing human EGF-R), stimulated with EGF 20 ng/ml, 48 hours, Cell Titer 96 AQueous assay. From the text:
A cell line of murine origin dependent on interleukin-3-(IL-3) which was genetically modified to express functional human EGF-R was used here. The proliferation of these cells known as F/L-HERc can therefore be stimulated either by murine IL-3 or by EGF (cf. von Rüden, T. et al. in EMBO J. 7, 2749-2756 (1988) and Pierce, J. H. et al. in Science 239, 628-631 (1988)).
The starting material used for the F/L-HERc cells was the cell line FDC-P1, the production of which has been described by Dexter, T. M. et al. in J. Exp. Med. 152, 1036-1047 (1980). Alternatively, however, other growth-factor-dependent cells may also be used (cf. for example Pierce, J. H. et al. in Science 239, 628-631 (1988), Shibuya, H. et al. in Cell 70, 57-67 (1992) and Alexander, W. S. et al. in EMBO J. 10, 3683-3691 (1991)). […]
In order to determine the inhibitory activity of the compounds according to the invention the relative cell number was measured in O.D. units using the Cell Titer 96™ AQueous Non-Radioactive Cell Proliferation Assay (Promega). […]

T1 sequence (P00533 25-1210): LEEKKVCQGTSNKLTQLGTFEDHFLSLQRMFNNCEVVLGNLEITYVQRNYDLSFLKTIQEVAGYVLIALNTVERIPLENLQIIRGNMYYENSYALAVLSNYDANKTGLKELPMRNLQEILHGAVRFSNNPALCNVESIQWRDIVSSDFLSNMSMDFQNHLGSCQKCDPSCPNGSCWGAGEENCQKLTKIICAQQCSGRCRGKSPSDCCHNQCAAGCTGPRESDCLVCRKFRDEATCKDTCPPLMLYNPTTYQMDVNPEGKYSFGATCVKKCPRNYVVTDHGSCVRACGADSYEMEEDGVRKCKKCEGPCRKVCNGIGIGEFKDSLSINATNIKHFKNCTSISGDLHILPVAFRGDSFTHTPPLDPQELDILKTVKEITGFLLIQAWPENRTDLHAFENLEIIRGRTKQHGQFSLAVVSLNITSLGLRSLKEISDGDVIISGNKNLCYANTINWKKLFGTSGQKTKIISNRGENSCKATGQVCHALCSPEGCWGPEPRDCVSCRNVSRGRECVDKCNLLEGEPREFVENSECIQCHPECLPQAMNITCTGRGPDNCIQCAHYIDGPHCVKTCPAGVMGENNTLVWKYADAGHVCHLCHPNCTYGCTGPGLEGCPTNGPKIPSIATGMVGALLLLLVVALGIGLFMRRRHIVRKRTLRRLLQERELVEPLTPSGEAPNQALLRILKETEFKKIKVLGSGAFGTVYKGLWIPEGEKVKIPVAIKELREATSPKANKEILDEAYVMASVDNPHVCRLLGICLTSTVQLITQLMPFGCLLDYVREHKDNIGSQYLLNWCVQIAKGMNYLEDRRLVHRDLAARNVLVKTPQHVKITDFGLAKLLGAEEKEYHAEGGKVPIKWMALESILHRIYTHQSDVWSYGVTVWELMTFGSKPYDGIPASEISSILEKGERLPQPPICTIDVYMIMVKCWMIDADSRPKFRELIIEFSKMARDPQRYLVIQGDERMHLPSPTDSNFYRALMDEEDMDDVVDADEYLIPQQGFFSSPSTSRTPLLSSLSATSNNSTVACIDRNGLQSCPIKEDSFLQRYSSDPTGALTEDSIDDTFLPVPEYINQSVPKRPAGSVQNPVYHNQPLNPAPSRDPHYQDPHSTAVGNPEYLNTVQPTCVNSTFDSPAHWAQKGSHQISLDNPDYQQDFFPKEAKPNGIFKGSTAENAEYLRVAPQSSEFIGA

Take `C=CC(=O)Nc1cc2c(N[C@H](C)c3ccccc3)ncnc2cc1OCCN1CCN(C2COC(=O)C2)CC1` (stereo partly drawn) [1 (2), 4-[(R)-(1-phenylethyl)amino]-7-{2-[4-(2-oxo-tetrahydrofuran-4-yl)-piperazin-1-yl]-ethoxy}-6-[(vinylcarbonyl)amino]-quinazoline]: the IC50 amounted to 12 nM.
